Measured values as given in ChEMBL document CHEMBL1201861, “Genomics of Drug Sensitity in Cancer screening data, Wellcome Trust Sanger Institute”.

Key:
Type in all cases: functional, cell-based
[1] = tested on: DG-75; assay: cells; conditions: Homo sapiens;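 further: growth inhibition of DG-75 cells, read out with a cell viability assay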
Description: SANGER: Inhibition of human DG-75 cell growth in a cell viability assay.

[2] = tested on: T98G; assay: cells; conditions: Homo sapiens;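 further: growth inhibition of T98G cells, read out by a cell viability assay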
Description: SANGER: Inhibition of human T98G cell growth in a cell viability assay.

[3] = tested on: LOUCY; assay: cells; conditions: Homo sapiens;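 further: growth inhibition of human LOUCY cells, read out with a cell viability assay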
Description: SANGER: Inhibition of human LOUCY cell growth in a cell viability assay.

[4] = tested on: KYSE-510; assay: cells; conditions: Homo sapiens;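 further: cell viability readout used to measure how strongly growth of the cell line is suppressed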
Description: SANGER: Inhibition of human KYSE-510 cell growth in a cell viability assay.

[5] = tested on: SW837; assay: cells; conditions: Homo sapiens;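 further: growth inhibition of SW837 cells, determined with a cell viability assay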
Description: SANGER: Inhibition of human SW837 cell growth in a cell viability assay.

[6] = tested on: U-118-MG; assay: cells; conditions: Homo sapiens
Description: SANGER: Inhibition of human U-118-MG cell growth in a cell viability assay.

[7] = tested on: NCI-H2052; assay: cells; conditions: Homo sapiens;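 further: growth inhibition of NCI-H2052 cells, read out with a cell viability assay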
Description: SANGER: Inhibition of human NCI-H2052 cell growth in a cell viability assay.

[8] = tested on: BXPC-3; assay: cells; conditions: Homo sapiens;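 further: growth inhibition of human BxPC-3 cells, read out by a cell viability assay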
Description: SANGER: Inhibition of human BxPC-3 cell growth in a cell viability assay.

[9] = tested on: G-361; assay: cells; conditions: Homo sapiens
[10] = tested on: BT-20; assay: cells; conditions: Homo sapiens;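 further: cell viability assay measuring suppression of growth in human BT-20 cells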
Description: SANGER: Inhibition of human BT-20 cell growth in a cell viability assay.

[11] = tested on: MFE-280; assay: cells; conditions: Homo sapiens;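 further: growth inhibition of MFE-280 cells, determined with a cell viability readout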
Description: SANGER: Inhibition of human MFE-280 cell growth in a cell viability assay.

[12] = tested on: SW13; assay: cells; conditions: Homo sapiens;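 further: IC50 is inhibition of SW13 cell growth, read out with a cell viability assay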
Description: SANGER: Inhibition of human SW13 cell growth in a cell viability assay.

[13] = tested on: CAPAN-1; assay: cells; conditions: Homo sapiens;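 further: growth suppression of CAPAN-1 cells, read out by a cell viability assay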
Description: SANGER: Inhibition of human CAPAN-1 cell growth in a cell viability assay.

[14] = tested on: EFO-27; assay: cells; conditions: Homo sapiens;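 further: growth inhibition of EFO-27 cells, read out with a cell viability assay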
Description: SANGER: Inhibition of human EFO-27 cell growth in a cell viability assay.

[15] = tested on: BHT-101; assay: cells; conditions: Homo sapiens
Description: SANGER: Inhibition of human BHT-101 cell growth in a cell viability assay.

[16] = tested on: NCI-H1703; assay: cells; conditions: Homo sapiens;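 further: growth inhibition of NCI-H1703 cells, read out via a cell viability assay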
Description: SANGER: Inhibition of human NCI-H1703 cell growth in a cell viability assay.

[17] = tested on: RPMI 8402; assay: SANGER: Inhibition of human RPMI-8402 cell growth in a cell viability assay.
[18] = tested on: SCC-9; assay: cells; conditions: Homo sapiens;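 further: Read-out is a cell viability assay, with values giving inhibition of cell growth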
Description: SANGER: Inhibition of human SCC-9 cell growth in a cell viability assay.

[19] = tested on: KYSE-270; assay: cells; conditions: Homo sapiens;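 further: cell growth inhibition measured with a viability assay in the human KYSE-270 line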
Description: SANGER: Inhibition of human KYSE-270 cell growth in a cell viability assay.

[20] = tested on: MDA-MB-453; assay: cells; conditions: Homo sapiens
Description: SANGER: Inhibition of human MDA-MB-453 cell growth in a cell viability assay.

[21] = tested on: HCC70; assay: cells; conditions: Homo sapiens;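 further: cell viability assay measuring how strongly the compound suppresses proliferation of HCC70 cells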
Description: SANGER: Inhibition of human HCC70 cell growth in a cell viability assay.

[22] = tested on: MG-63; assay: cells; conditions: Homo sapiens;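 further: growth inhibition of human MG-63 cells, read out with a cell viability assay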
Description: SANGER: Inhibition of human MG-63 cell growth in a cell viability assay.

[23] = tested on: MHH-CALL-2; assay: cells; conditions: Homo sapiens;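 further: growth inhibition of the cell line, read out in a cell viability assay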
Description: SANGER: Inhibition of human MHH-CALL-2 cell growth in a cell viability assay.

[24] = tested on: REH; assay: cells; conditions: Homo sapiens;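 further: growth inhibition of REH cells determined with a cell viability read-out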
Description: SANGER: Inhibition of human REH cell growth in a cell viability assay.

[25] = tested on: EFO-21; assay: cells; conditions: Homo sapiens;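 further: growth inhibition of EFO-21 cells measured with a viability assay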
Description: SANGER: Inhibition of human EFO-21 cell growth in a cell viability assay.

[26] = tested on: LC-1F; assay: cells; conditions: Homo sapiens;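 further: growth inhibition of human LC-1F cells, read out with a cell viability assay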
Description: SANGER: Inhibition of human LC-1F cell growth in a cell viability assay.

[27] = tested on: NCI-H1693; assay: cells; conditions: Homo sapiens;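 further: growth inhibition of the human cell line, read out with a cell viability assay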
Description: SANGER: Inhibition of human NCI-H1693 cell growth in a cell viability assay.

[28] = tested on: NCI-H2452; assay: cells; conditions: Homo sapiens;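 further: growth inhibition of NCI-H2452 cells, read out with a cell viability assay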
Description: SANGER: Inhibition of human NCI-H2452 cell growth in a cell viability assay.

[29] = tested on: WM-115; assay: cells; conditions: Homo sapiens
Description: SANGER: Inhibition of human WM-115 cell growth in a cell viability assay.

[30] = tested on: CAL-72; assay: cells; conditions: Homo sapiens;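 further: cell viability assay measuring inhibition of proliferation in the CAL-72 cell line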
Description: SANGER: Inhibition of human CAL-72 cell growth in a cell viability assay.

[31] = tested on: SCC-3; assay: cells; conditions: Homo sapiens;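 further: cell viability assay measuring inhibition of SCC-3 cell growth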
Description: SANGER: Inhibition of human SCC-3 cell growth in a cell viability assay.

[32] = tested on: NCI-H1651; assay: cells; conditions: Homo sapiens;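 further: Read-out is a cell viability assay, with IC50 expressing inhibition of NCI-H1651 cell growth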
Description: SANGER: Inhibition of human NCI-H1651 cell growth in a cell viability assay.

[33] = tested on: HuO-3N1; assay: cells; conditions: Homo sapiens;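 further: cell viability readout used to measure how strongly compounds suppress proliferation of human HuO-3N1 cells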
Description: SANGER: Inhibition of human HuO-3N1 cell growth in a cell viability assay.

[34] = tested on: SW48; assay: cells; conditions: Homo sapiens;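 further: growth inhibition of SW48 cells, read out with a cell viability assay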
Description: SANGER: Inhibition of human SW48 cell growth in a cell viability assay.

[35] = tested on: DoTc2-4510; assay: cells; conditions: Homo sapiens
[36] = tested on: CAL-39; assay: cells; conditions: Homo sapiens;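 further: cell viability assay measuring growth inhibition of CAL-39 cells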
Description: SANGER: Inhibition of human CAL-39 cell growth in a cell viability assay.

[37] = tested on: PFSK-1; assay: cells; conditions: Homo sapiens;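 further: cell viability assay measuring how strongly compounds suppress growth of human PFSK-1 cells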
Description: SANGER: Inhibition of human PFSK-1 cell growth in a cell viability assay.

[38] = tested on: SF-295; assay: cells; conditions: Homo sapiens;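 further: growth inhibition of SF-295 cells, read out with a cell viability assay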
Description: SANGER: Inhibition of human SF295 cell growth in a cell viability assay.

[39] = tested on: CAL-120; assay: cells; conditions: Homo sapiens;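 further: cell growth inhibition, read out as cell viability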
Description: SANGER: Inhibition of human CAL-120 cell growth in a cell viability assay.

[40] = tested on: A673; assay: cells; conditions: Homo sapiens;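 further: growth inhibition of human A673 cells, read out through a cell viability assay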
Description: SANGER: Inhibition of human A673 cell growth in a cell viability assay.

[41] = tested on: OAW-28; assay: cells; conditions: Homo sapiens;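 further: growth inhibition of OAW-28 cells, read out with a cell viability assay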
Description: SANGER: Inhibition of human OAW-28 cell growth in a cell viability assay.

[42] = tested on: SW756; assay: cells; conditions: Homo sapiens;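 further: growth inhibition of human SW756 cells, read out with a cell viability assay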
Description: SANGER: Inhibition of human SW756 cell growth in a cell viability assay.

[43] = tested on: NCI-H2170; assay: cells; conditions: Homo sapiens;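 further: cell viability assay measuring growth inhibition of human NCI-H2170 cancer cells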
Description: SANGER: Inhibition of human NCI-H2170 cell growth in a cell viability assay.

[44] = tested on: A253 cell line; assay: cells; conditions: Homo sapiens;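 further: growth inhibition of A253 cells, read out with a cell viability assay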
Description: SANGER: Inhibition of human A253 cell growth in a cell viability assay.

[45] = tested on: SNU-449; assay: cells; conditions: Homo sapiens
Description: SANGER: Inhibition of human SNU-449 cell growth in a cell viability assay.

[46] = tested on: NCI-H2122; assay: cells; conditions: Homo sapiens;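 further: growth inhibition of the cells, read out with a cell viability assay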
Description: SANGER: Inhibition of human NCI-H2122 cell growth in a cell viability assay.

[47] = tested on: TE-15; assay: cells; conditions: Homo sapiens;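 further: cell viability readout of growth inhibition in TE-15 cells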
Description: SANGER: Inhibition of human TE-15 cell growth in a cell viability assay.

[48] = tested on: NCCIT; assay: SANGER: Inhibition of human NCCIT cell growth in a cell viability assay.
[49] = tested on: U-698-M; assay: cells; conditions: Homo sapiens
Description: SANGER: Inhibition of human U-698-M cell growth in a cell viability assay.

[50] = tested on: Raji; assay: cells; conditions: Homo sapiens;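 further: cell viability assay measuring inhibition of Raji cell growth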
Description: SANGER: Inhibition of human Raji cell growth in a cell viability assay.

[51] = tested on: HMV-2 cell line; assay: cells; conditions: Homo sapiens;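 further: growth inhibition of HMV-II cells, read out with a cell viability assay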
Description: SANGER: Inhibition of human HMV-II cell growth in a cell viability assay.

[52] = tested on: NCI-H292; assay: cells; conditions: Homo sapiens;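 further: growth inhibition of NCI-H292 cells, read out with a cell viability assay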
Description: SANGER: Inhibition of human NCI-H292 cell growth in a cell viability assay.

[53] = tested on: RCM-1; assay: cells; conditions: Homo sapiens;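 further: growth inhibition of the RCM-1 line, determined with a cell viability readout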
Description: SANGER: Inhibition of human RCM-1 cell growth in a cell viability assay.

[54] = tested on: HCT-15; assay: cells; conditions: Homo sapiens;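 further: cell viability readout, IC50 reflecting suppression of HCT-15 cell growth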
Description: SANGER: Inhibition of human HCT-15 cell growth in a cell viability assay.

[55] = tested on: KYSE-150 cell line; assay: cells; conditions: Homo sapiens;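 further: growth inhibition of human KYSE-150 cells, read out with a cell viability assay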
Description: SANGER: Inhibition of human KYSE-150 cell growth in a cell viability assay.

[56] = tested on: NUGC-3; assay: cells; conditions: Homo sapiens;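 further: growth inhibition of human NUGC-3 cells, read out with a cell viability assay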
Description: SANGER: Inhibition of human NUGC-3 cell growth in a cell viability assay.

[57] = tested on: NCI-H1623; assay: cells; conditions: Homo sapiens;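 further: cell viability assay used as the read-out for growth inhibition of NCI-H1623 cells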
Description: SANGER: Inhibition of human NCI-H1623 cell growth in a cell viability assay.

[58] = tested on: D-247MG; assay: cells; conditions: Homo sapiens
Description: SANGER: Inhibition of human D-247MG cell growth in a cell viability assay.

[59] = tested on: HLE; assay: cells; conditions: Homo sapiens
Description: SANGER: Inhibition of human HLE cell growth in a cell viability assay.

[60] = tested on: SNU-16; assay: cells; conditions: Homo sapiens
Description: SANGER: Inhibition of human NCI-SNU-16 cell growth in a cell viability assay.

[61] = tested on: HSC-4; assay: cells; conditions: Homo sapiens
Description: SANGER: Inhibition of human HSC-4 cell growth in a cell viability assay.

[62] = tested on: TUR; assay: cells; conditions: Homo sapiens
Description: SANGER: Inhibition of human TUR cell growth in a cell viability assay.

[63] = tested on: SKG-IIIa; assay: cells; conditions: Homo sapiens
Description: SANGER: Inhibition of human SKG-IIIa cell growth in a cell viability assay.

Structure (SMILES): O=c1[nH]c2ccccc2n1C1CCN(Cc2ccc(-c3nc4cc5[nH]cnc5cc4nc3-c3ccccc3)cc2)CC1
- IC50 [1]: > 2.56 µM
- IC50 [2]: > 2.56 µM
- IC50 [3]: > 2.56 µM
- IC50 [4]: 2.21 µM
- IC50 [5]: > 2.56 µM
- IC50 [6]: > 2.56 µM
- IC50 [7]: > 2.56 µM
- IC50 [8]: 2.22 µM
- IC50 [9]: > 2.56 µM
- IC50 [10]: > 2.56 µM
- IC50 [11]: > 2.56 µM
- IC50 [12]: > 2.56 µM
- IC50 [13]: > 2.56 µM
- IC50 [14]: > 2.56 µM
- IC50 [15]: > 2.56 µM
- IC50 [16]: > 2.56 µM
- IC50 [17]: > 2.56 µM
- IC50 [18]: > 2.56 µM
- IC50 [19]: > 2.56 µM
- IC50 [20]: > 2.56 µM
- IC50 [21]: 0.751 µM
- IC50 [22]: > 2.56 µM
- IC50 [23]: > 2.56 µM
- IC50 [24]: > 2.56 µM
- IC50 [25]: > 2.56 µM
- IC50 [26]: > 2.56 µM
- IC50 [27]: > 2.56 µM
- IC50 [28]: > 2.56 µM
- IC50 [29]: > 2.56 µM
- IC50 [30]: > 2.56 µM
- IC50 [31]: > 2.56 µM
- IC50 [32]: > 2.56 µM
- IC50 [33]: > 2.56 µM
- IC50 [34]: > 2.56 µM
- IC50 [35]: > 2.56 µM
- IC50 [36]: > 2.56 µM
- IC50 [37]: > 2.56 µM
- IC50 [38]: > 2.56 µM
- IC50 [39]: > 2.56 µM
- IC50 [40]: > 2.56 µM
- IC50 [41]: > 2.56 µM
- IC50 [42]: > 2.56 µM
- IC50 [43]: > 2.56 µM
- IC50 [44]: > 2.56 µM
- IC50 [45]: > 2.56 µM
- IC50 [46]: > 2.56 µM
- IC50 [47]: > 2.56 µM
- IC50 [48]: > 2.56 µM
- IC50 [49]: > 2.56 µM
- IC50 [50]: > 2.56 µM
- IC50 [51]: > 2.56 µM
- IC50 [52]: > 2.56 µM
- IC50 [53]: > 2.56 µM
- IC50 [54]: > 2.56 µM
- IC50 [55]: > 2.56 µM
- IC50 [56]: > 2.56 µM
- IC50 [57]: > 2.56 µM
- IC50 [58]: > 2.56 µM
- IC50 [59]: > 2.56 µM
- IC50 [60]: > 2.56 µM
- IC50 [61]: > 2.56 µM
- IC50 [62]: > 2.56 µM
- IC50 [63]: > 2.56 µM

Structure (SMILES): CC(C)=CC[C@@H](O)C1=CC(=O)c2c(O)ccc(O)c2C1=O [SHIKONIN]
- IC50 [1]: 1.17 µM
- IC50 [2]: 1.08 µM
- IC50 [3]: 0.586 µM
- IC50 [4]: 0.253 µM
- IC50 [5]: > 16 µM
- IC50 [6]: 0.842 µM
- IC50 [7]: 0.0611 µM
- IC50 [8]: 0.334 µM
- IC50 [9]: 0.473 µM
- IC50 [10]: 2.56 µM
- IC50 [11]: 4.95 µM
- IC50 [12]: 1.41 µM
- IC50 [13]: 0.759 µM
- IC50 [14]: 0.33 µM
- IC50 [15]: 1.25 µM
- IC50 [16]: 2.3 µM
- IC50 [17]: 1.5 µM
- IC50 [18]: 0.197 µM
- IC50 [19]: 0.217 µM
- IC50 [20]: 2.52 µM
- IC50 [21]: 2.01 µM
- IC50 [22]: 0.257 µM
- IC50 [23]: 0.715 µM
- IC50 [24]: 0.147 µM
- IC50 [25]: 1.34 µM
- IC50 [26]: > 16 µM
- IC50 [27]: > 16 µM
- IC50 [28]: > 16 µM
- IC50 [29]: 10.6 µM
- IC50 [30]: 1.01 µM
- IC50 [31]: 1 µM
- IC50 [32]: > 16 µM
- IC50 [33]: 4.43 µM
- IC50 [34]: 1.26 µM
- IC50 [35]: 0.263 µM
- IC50 [36]: 0.483 µM
- IC50 [37]: > 16 µM
- IC50 [38]: 0.664 µM
- IC50 [39]: 1.36 µM
- IC50 [40]: 1.22 µM
- IC50 [41]: 1.2 µM
- IC50 [42]: 0.762 µM
- IC50 [43]: 1.72 µM
- IC50 [44]: < 0.0625 µM
- IC50 [45]: 0.813 µM
- IC50 [46]: > 16 µM
- IC50 [47]: 0.4 µM
- IC50 [48]: 0.517 µM
- IC50 [49]: 0.301 µM
- IC50 [50]: 0.631 µM
- IC50 [51]: 0.0564 µM
- IC50 [52]: 0.853 µM
- IC50 [53]: 2 µM
- IC50 [54]: 0.268 µM
- IC50 [55]: 0.902 µM
- IC50 [56]: 0.765 µM
- IC50 [57]: 2.73 µM
- IC50 [58]: 1.66 µM
- IC50 [59]: 0.0883 µM
- IC50 [60]: > 16 µM
- IC50 [61]: 2.12 µM
- IC50 [62]: 0.466 µM
- IC50 [63]: 4.39 µM
